“Also recorded” adds a separate entry of the source.
System: U87MG glioblastoma cells
Test: Relative sensitivity to erlotinib of U87MG lines expressing PTEN, EGFR, EGFRvIII (crystal violet)
Format: cell-based
Conditions: erlotinib 0-10 μM, 10-14 days, U87-PTEN
Description: FIG. 3. […] 1000 cells/well of each cell line was seeded into 96-well plates in 8 replicates. […] Experiments were repeated 3 times in 8 replicates for each condition.
Following retroviral transduction we selected the following stable cell lines: U87-PTEN, U87-EGFR, U87-PTEN-EGFR, U87-EGFRvIII and U87-PTEN-EGFRvIII.
Functional analysis of effect of EGFR, EGFRvIII and PTEN coexpression: Human EGFR and EGFRvIII cDNAs were retrovirally introduced into U87MG and U87MG-PTEN over-expressing cells and selected for antibiotic resistance. Multiple stable clones were analyzed for the expression of PTEN, EGFR or EGFRvIII by immunoblot. […] The background reading of the wells containing medium alone was subtracted from experimental wells.

C#Cc1cccc(Nc2ncnc3cc(OCCOC)c(OCCOC)cc23)c1 [Erlotinib]
sensitization of glioblastoma cells to erlotinib: EGFRvIII and PTEN co-expression sensitizes glioblastoma cells to erlotinib; also recorded: EGFRvIII sensitized glioblastoma cells to erlotinib, but only when PTEN was co-expressed

Source: patent US20110045459A1, “Molecular determinants of EGFR kinase inhibitor response in glioblastoma” (priority 2005, published 2011)
